In PMC6627374, “Effects of the Pentapeptide P33 on Memory and Synaptic Plasticity in APP/PS1 Transgenic Mice: A Novel Mechanism Presenting the Protein Fe65 as a Target” (International Journal of Molecular Sciences, 2019):

Target: T1, Fe65-WW domain (WW domain of Fe65) (Homo sapiens, UniProt O00213)
T1 construct: made in house; host or cells: chemical solid-phase peptide synthesis (Fmoc, Rink Amide AM resin); no expression host
T1 sequence (O00213 253-285 limits assumed): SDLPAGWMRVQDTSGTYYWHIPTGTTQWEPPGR
Assay: ITC binding to Fe65-WW
Design: species or system human and mouse (WW domain identical)
Conditions: 310 K, PBS pH 7.4, Fe65-WW 83.5 μM in cell, PPPPP 1.056 mM in syringe (control)
Description: Synthesis of acetyl-Fe65-WW, acetyl-Pin1-WW, and the control PPPPP (structures involved in Figure 2) was carried out on a Rink Amide AM (0.3 mmol∙g^−1) resin using Fmoc chemistry and activation with HATU in the presence of DIPEA. Cleavage was achieved by a treatment with TFA/H2O/triisopropylsilane/1,4-dithio-DL-threitol/phenol (90:5:3:1:1) at room temperature (RT). TFA was removed in vacuo, the peptides were then precipitated using cold, dry diethyl-ether, dissolved in ACN/H2O and lyophilized.
Isothermal titrations were performed using a Microcal VP-ITC (Malvern Instruments, Malvern, UK) microcalorimeter. Binding experiments were carried out in degassed phosphate-buffered saline (PBS) at pH 7.4. The concentrations of Fe65-WW and Pin1-WW were normalized for the peptide contents. In one titration experiment, 10-μL portions of the ligand-containing solution (P33 or PPPPP) were injected from a computer-controlled 300-μL microsyringe at intervals of 300 s into the solution of the WW domain (Fe65-WW or Pin1-WW), dissolved in the same buffer as for the ligand. The rev of the microsyringe was set to 307 rpm. Measurements were repeated twice at 310 K. The starting concentrations of Fe65-WW and Pin1-WW in the cell were 83.5 and 81.4 μM, respectively, and the concentrations of the stock solutions containing P33 or PPPPP in the syringe were 1.006 and 1.056 mM, respectively. Control experiments were performed by injecting P33 or PPPPP into the cell containing plain buffer without the WW domain, with results achieved via subtracting the dilution heats from those measured in the presence of the WW domain.

PPPPP [control pentapeptide PPPPP, reference compound]
binding to Fe65-WW (in words): no binding between the Fe65-WW and the pentapeptide could be observed
